Experimental data reported in patent US6737383B1, “Herbicidal oxadiazolidines” (priority 1999, dated 2004).

Legend:
bedstraw = experiment: Test B pre/postemergence bedstraw; type: in vivo, Galium aparine
Outline: (§1)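 Response is a visual 0-to-10 score relative to untreated plants, where 0 means no effect and 10 means complete control, taken twelve to sixteen days after application. Treatments went onto soil at planting and onto foliage of 1- to 4-leaf plants, using a surfactant-containing non-phytotoxic solvent.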

blackgrass = experiment: Test B pre/postemergence blackgrass; type: in vivo, Alopecurus myosuroides
Outline: as §1

surinam grass = experiment: Test B pre/postemergence surinam grass; type: in vivo, Brachiaria decumbens
Outline: as §1

cocklebur = experiment: Test B pre/postemergence cocklebur; type: in vivo, Xanthium strumarium
Outline: as §1

corn = experiment: Test B pre/postemergence corn; type: in vivo, Zea mays
Outline: as §1

crabgrass = experiment: Test B pre/postemergence crabgrass; type: in vivo, Digitaria sanguinalis
Outline: as §1

giant foxtail = experiment: Test B pre/postemergence giant foxtail; type: in vivo, Setaria faberii
Outline: as §1

morningglory = experiment: Test B pre/postemergence morningglory; type: in vivo, Ipomoea hederacea
Outline: as §1

pigweed = experiment: Test B pre/postemergence pigweed; type: in vivo, Amaranthus retroflexus
Outline: as §1

rape = experiment: Test B pre/postemergence rape; type: in vivo, Brassica napus
Outline: as §1

soybean = experiment: Test B pre/postemergence soybean; type: in vivo, Glycine max
Outline: as §1

sugar beet = experiment: Test B pre/postemergence sugar beet; type: in vivo, Beta vulgaris
Outline: as §1

velvetleaf = experiment: Test B pre/postemergence velvetleaf; type: in vivo, Abutilon theophrasti
Outline: as §1

wheat = experiment: Test B pre/postemergence wheat; type: in vivo, Triticum aestivum
Outline: as §1

wild oat = experiment: Test B pre/postemergence wild oat; type: in vivo, Avena fatua
Outline: as §1

purple nutsedge = experiment: Test B pre/postemergence purple nutsedge; type: in vivo, Cyperus rotundus
Outline: as §1

rice = experiment: Test B flood test rice; type: in vivo, Oryza sativa
Outline: (§2)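 Read-out is a visual response score from 0 (no effect) to 10 (complete control), assigned by comparison with untreated controls. Treatment was applied at the 2-leaf stage, and plants stayed in the greenhouse for twelve to sixteen days before scoring.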

smallflower flatsedge = experiment: Test B flood test smallflower flatsedge; type: in vivo, Cyperus difformis
Outline: as §2

duck salad = experiment: Test B flood test duck salad; type: in vivo, Heteranthera limosa
Outline: as §2

bamyardgrass = experiment: Test B flood test barnyardgrass; type: in vivo, Echinochloa crus-galli
Outline: as §2

[1] = Postemergence, Rate 62 g/ha, scale 0 to 10, 0 is no effect, 10 is complete control
[2] = Postemergence, Rate 250 g/ha, scale 0 to 10, 0 no effect, 10 complete control
[3] = Preemergence, Rate 62 g/ha, scale 0 to 10, 0 is no effect, 10 is complete control
[4] = Preemergence, Rate 125 g/ha, scale 0 to 10 (0 no effect, 10 complete control)
[5] = Preemergence, Rate 250 g/ha, scale of 0 to 10 where 0 is no effect and 10 is complete control
[6] = Preemergence, Rate 500 g/ha, scale 0 (no effect) to 10 (complete control)
[7] = Rate 125 g/ha, Postemergence, scale 0 to 10, 0 no effect, 10 complete control
[8] = Rate 500 g/ha, Postemergence, 0 to 10 scale (0 no effect, 10 complete control)
[9] = Rate 125 g/ha, Postemergence section (flood test species), scale 0 to 10, 0 no effect, 10 complete control
[10] = Rate 500 g/ha, Postemergence section of Table B, 0 to 10 scale (0 no effect, 10 complete control)
[11] = flood test, listed under Postemergence, Rate 250 g/ha, scale 0 to 10, 0 no effect, 10 complete control

## CC(C)N(C(=O)n1oc(=O)n(-c2ccccc2C(F)(F)F)c1=O)c1ccc(F)cc1 [Compound 15]
bedstraw; [1]
  Bedstraw plant response rating: 0
bedstraw; [2]
  Bedstraw plant response rating: 0
bedstraw; [3]
  Plant response rating, Bedstraw: 0
bedstraw; [4]
  Plant response rating, Bedstraw: 0
bedstraw; [5]
  Plant response rating, Bedstraw: 0
bedstraw; [6]
  Bedstraw plant response rating: 7
bedstraw; [7]
  Bedstraw plant response rating: 0
bedstraw; [8]
  Bedstraw plant response rating: 4
blackgrass; [1]
  Blackgrass plant response rating: 0
blackgrass; [2]
  Blackgrass plant response rating: 0
blackgrass; [3]
  Plant response rating, Blackgrass: 0
blackgrass; [4]
  Plant response rating, Blackgrass: 0
blackgrass; [5]
  Plant response rating, Blackgrass: 0
blackgrass; [6]
  Blackgrass plant response rating: 0
blackgrass; [7]
  Blackgrass plant response rating: 0
blackgrass; [8]
  Blackgrass plant response rating: 3
Surinam grass; [1]
  B. signalgrass plant response rating: 0
Surinam grass; [2]
  B. signalgrass plant response rating: 0
Surinam grass; [3]
  Plant response rating, B. signalgrass: 0
Surinam grass; [4]
  Plant response rating, B. signalgrass: 0
Surinam grass; [5]
  Plant response rating, B. signalgrass: 0
Surinam grass; [6]
  B. signalgrass plant response rating: 0
Surinam grass; [7]
  B. signalgrass plant response rating: 0
Surinam grass; [8]
  B. signalgrass plant response rating: 0
cocklebur; [1]
  Cocklebur plant response rating: 0
cocklebur; [2]
  Cocklebur plant response rating: 5
cocklebur; [3]
  Plant response rating, Cocklebur: 0
cocklebur; [4]
  Plant response rating, Cocklebur: 0
cocklebur; [6]
  Cocklebur plant response rating: 0
cocklebur; [7]
  Cocklebur plant response rating: 0
cocklebur; [8]
  Cocklebur plant response rating: 8
corn; [1]
  Corn plant response rating: 0
corn; [2]
  Corn plant response rating: 0
corn; [3]
  Plant response rating, Corn: 0
corn; [4]
  Plant response rating, Corn: 0
corn; [6]
  Corn plant response rating: 0
corn; [7]
  Corn plant response rating: 0
corn; [8]
  Corn plant response rating: 0
crabgrass; [1]
  Crabgrass plant response rating: 0
crabgrass; [2]
  Crabgrass plant response rating: 3
crabgrass; [3]
  Plant response rating, Crabgrass: 0
crabgrass; [4]
  Plant response rating, Crabgrass: 2
crabgrass; [6]
  Crabgrass plant response rating: 10
crabgrass; [7]
  Crabgrass plant response rating: 1
crabgrass; [8]
  Crabgrass plant response rating: 8
Giant foxtail; [1]
  Giant foxtail plant response rating: 0
Giant foxtail; [2]
  Giant foxtail plant response rating: 0
Giant foxtail; [3]
  Plant response rating, Giant foxtail: 6
Giant foxtail; [4]
  Plant response rating, Giant foxtail: 8
Giant foxtail; [6]
  Giant foxtail plant response rating: 10
Giant foxtail; [7]
  Giant foxtail plant response rating: 0
Giant foxtail; [8]
  Giant foxtail plant response rating: 0
morningglory; [1]
  Morningglory plant response rating: 2
morningglory; [2]
  Morningglory plant response rating: 6
morningglory; [3]
  Plant response rating, Morningglory: 0
morningglory; [4]
  Plant response rating, Morningglory: 0
morningglory; [6]
  Morningglory plant response rating: 0
morningglory; [7]
  Morningglory plant response rating: 2
morningglory; [8]
  Morningglory plant response rating: 7
pigweed; [1]
  Redroot pigweed plant response rating: 0
pigweed; [2]
  Redroot pigweed plant response rating: 2
pigweed; [3]
  Plant response rating, Redroot pigweed: 0
pigweed; [4]
  Plant response rating, Redroot pigweed: 0
pigweed; [5]
  Plant response rating, Redroot pigweed: 0
pigweed; [6]
  Redroot pigweed plant response rating: 8
pigweed; [7]
  Redroot pigweed plant response rating: 0
pigweed; [8]
  Redroot pigweed plant response rating: 6
rape; [1]
  Rape plant response rating: 0
rape; [2]
  Rape plant response rating: 0
rape; [3]
  Plant response rating, Rape: 0
rape; [4]
  Plant response rating, Rape: 0
rape; [5]
  Plant response rating, Rape: 0
rape; [6]
  Rape plant response rating: 0
rape; [7]
  Rape plant response rating: 0
rape; [8]
  Rape plant response rating: 0
soybean; [1]
  Soybean plant response rating: 2
soybean; [2]
  Soybean plant response rating: 2
soybean; [3]
  Plant response rating, Soybean: 0
soybean; [4]
  Plant response rating, Soybean: 0
soybean; [6]
  Soybean plant response rating: 0
soybean; [7]
  Soybean plant response rating: 2
Sugar beet; [1]
  Sugarbeets plant response rating: 0
Sugar beet; [2]
  Sugarbeets plant response rating: 0
Sugar beet; [3]
  Plant response rating, Sugarbeets: 0
Sugar beet; [4]
  Plant response rating, Sugarbeets: 0
Sugar beet; [5]
  Plant response rating, Sugarbeets: 3
Sugar beet; [6]
  Sugarbeets plant response rating: 6
Sugar beet; [7]
  Sugarbeets plant response rating: 0
velvetleaf; [1]
  Velvetleaf plant response rating: 0
velvetleaf; [2]
  Velvetleaf plant response rating: 0
velvetleaf; [3]
  Plant response rating, Velvetleaf: 0
velvetleaf; [4]
  Plant response rating, Velvetleaf: 0
velvetleaf; [6]
  Velvetleaf plant response rating: 0
velvetleaf; [7]
  Velvetleaf plant response rating: 0
wheat; [1]
  Wheat plant response rating: 0
wheat; [2]
  Wheat plant response rating: 0
wheat; [3]
  Plant response rating, Wheat: 0
wheat; [4]
  Plant response rating, Wheat: 0
wheat; [5]
  Plant response rating, Wheat: 0
wheat; [6]
  Wheat plant response rating: 0
wheat; [7]
  Wheat plant response rating: 0
Wild oat; [1]
  Wild oats plant response rating: 0
Wild oat; [2]
  Wild oats plant response rating: 0
Wild oat; [4]
  Plant response rating, Wild oats: 0
Wild oat; [5]
  Plant response rating, Wild oats: 0
Wild oat; [6]
  Wild oats plant response rating: 0
Wild oat; [7]
  Wild oats plant response rating: 0
Purple nutsedge; [1]
  Nutsedge plant response rating: 0
Purple nutsedge; [2]
  Nutsedge plant response rating: 0
Purple nutsedge; [3]
  Plant response rating, Nutsedge: 0
Purple nutsedge; [4]
  Plant response rating, Nutsedge: 0
Purple nutsedge; [6]
  Nutsedge plant response rating: 0
Purple nutsedge; [7]
  Nutsedge plant response rating: 0
Purple nutsedge; [8]
  Nutsedge plant response rating: 0
rice; [1]
  Rice plant response rating: 0
rice; [9]
  Rice plant response rating: 0
rice; [10]
  Rice plant response rating: 0
rice; [11]
  Rice plant response rating: 0
Smallflower flatsedge; [1]
  S. Flatsedge plant response rating: 0
Smallflower flatsedge; [9]
  S. Flatsedge plant response rating: 0
Smallflower flatsedge; [11]
  S. Flatsedge plant response rating: 0
Duck salad; [1]
  Ducksalad plant response rating: 0
Duck salad; [9]
  Ducksalad plant response rating: 0
Duck salad; [10]
  Ducksalad plant response rating: 0
Duck salad; [11]
  Ducksalad plant response rating: 0
bamyardgrass; [1]
  Barnyardgrass plant response rating: 0
bamyardgrass; [9]
  Barnyardgrass plant response rating: 0
bamyardgrass; [10]
  Barnyardgrass plant response rating: 0
bamyardgrass; [11]
  Barnyardgrass plant response rating: 0
